The source of these data is PMC6037852, “Design of Diarylheptanoid Derivatives as Dual Inhibitors Against Class IIa Histone Deacetylase and β-amyloid Aggregation” (Frontiers in Pharmacology, 2018).

Structures are written as SMILES.

One assay has as its target T1, HDAC7 (Homo sapiens, UniProt Q8WUI4).
T1 sequence (Q8WUI4 1-952): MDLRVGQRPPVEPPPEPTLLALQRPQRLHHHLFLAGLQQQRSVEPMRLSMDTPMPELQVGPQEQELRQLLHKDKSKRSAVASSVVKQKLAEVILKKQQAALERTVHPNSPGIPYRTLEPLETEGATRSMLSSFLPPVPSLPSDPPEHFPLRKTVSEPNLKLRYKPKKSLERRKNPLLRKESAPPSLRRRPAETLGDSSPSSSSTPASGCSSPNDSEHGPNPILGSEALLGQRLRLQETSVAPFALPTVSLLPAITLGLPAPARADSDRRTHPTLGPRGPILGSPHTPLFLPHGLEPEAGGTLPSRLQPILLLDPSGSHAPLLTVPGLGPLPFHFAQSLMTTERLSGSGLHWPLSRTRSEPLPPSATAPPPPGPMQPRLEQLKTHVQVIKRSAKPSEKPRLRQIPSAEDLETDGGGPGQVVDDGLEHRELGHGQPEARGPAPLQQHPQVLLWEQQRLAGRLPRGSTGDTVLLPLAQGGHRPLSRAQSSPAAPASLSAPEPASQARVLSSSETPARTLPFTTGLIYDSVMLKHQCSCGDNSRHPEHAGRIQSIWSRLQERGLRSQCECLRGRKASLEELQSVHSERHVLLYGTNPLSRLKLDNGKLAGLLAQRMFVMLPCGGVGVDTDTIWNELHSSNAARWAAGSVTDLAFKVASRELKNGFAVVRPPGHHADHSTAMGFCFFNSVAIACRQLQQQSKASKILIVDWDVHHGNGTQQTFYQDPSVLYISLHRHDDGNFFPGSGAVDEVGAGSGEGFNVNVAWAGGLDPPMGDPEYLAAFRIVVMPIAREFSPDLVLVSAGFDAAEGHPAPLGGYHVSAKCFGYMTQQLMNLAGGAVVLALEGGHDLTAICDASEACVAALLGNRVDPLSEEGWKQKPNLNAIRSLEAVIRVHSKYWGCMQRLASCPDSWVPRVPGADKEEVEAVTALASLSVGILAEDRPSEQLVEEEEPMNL
The assay is described as follows: HDAC fluorometric activity assay, HDAC7. The conditions noted are these: IC50 Class IIa HDAC7, fluorogenic HDAC class IIa substrate 10 μM.

The next assay deals with T2, HDAC6 (Homo sapiens, UniProt Q9UBN7).
T2 sequence (Q9UBN7 1-1215): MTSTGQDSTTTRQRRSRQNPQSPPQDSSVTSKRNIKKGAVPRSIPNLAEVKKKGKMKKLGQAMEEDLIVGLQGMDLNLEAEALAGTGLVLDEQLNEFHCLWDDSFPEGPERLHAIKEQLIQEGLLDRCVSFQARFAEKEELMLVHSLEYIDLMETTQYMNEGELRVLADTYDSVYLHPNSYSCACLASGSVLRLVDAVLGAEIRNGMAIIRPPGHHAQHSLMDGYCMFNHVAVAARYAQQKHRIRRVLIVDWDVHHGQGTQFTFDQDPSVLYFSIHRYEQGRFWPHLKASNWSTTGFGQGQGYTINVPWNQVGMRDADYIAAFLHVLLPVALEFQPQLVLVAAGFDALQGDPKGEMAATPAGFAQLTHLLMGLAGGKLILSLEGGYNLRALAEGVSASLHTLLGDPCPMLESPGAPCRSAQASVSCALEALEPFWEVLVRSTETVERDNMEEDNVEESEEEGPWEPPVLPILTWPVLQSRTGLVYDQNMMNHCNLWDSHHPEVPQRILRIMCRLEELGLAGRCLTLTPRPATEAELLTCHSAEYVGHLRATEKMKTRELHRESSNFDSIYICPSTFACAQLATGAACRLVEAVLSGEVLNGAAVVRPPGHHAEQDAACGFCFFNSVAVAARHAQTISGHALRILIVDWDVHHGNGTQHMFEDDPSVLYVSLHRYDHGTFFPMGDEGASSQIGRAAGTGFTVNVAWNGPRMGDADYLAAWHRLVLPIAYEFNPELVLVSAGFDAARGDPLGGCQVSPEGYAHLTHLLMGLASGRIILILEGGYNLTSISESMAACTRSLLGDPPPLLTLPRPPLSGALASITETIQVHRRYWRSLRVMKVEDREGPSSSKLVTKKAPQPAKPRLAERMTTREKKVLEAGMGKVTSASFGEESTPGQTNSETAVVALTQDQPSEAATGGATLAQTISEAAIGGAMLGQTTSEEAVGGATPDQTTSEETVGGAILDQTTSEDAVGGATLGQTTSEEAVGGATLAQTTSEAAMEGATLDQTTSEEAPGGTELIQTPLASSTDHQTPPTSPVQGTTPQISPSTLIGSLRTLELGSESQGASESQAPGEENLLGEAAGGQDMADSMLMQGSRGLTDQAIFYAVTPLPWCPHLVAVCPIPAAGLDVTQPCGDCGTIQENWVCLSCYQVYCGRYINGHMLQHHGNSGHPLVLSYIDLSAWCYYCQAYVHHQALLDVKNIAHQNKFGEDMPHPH
The assay is described as follows: HDAC fluorometric activity assay, HDAC6.

The subject of the next assay is HeLa nuclear HDACs. Description: HDAC fluorometric activity assay, HeLa nuclear extract. The conditions noted are these: read-out: IC50 HeLa Nuclear HDACs; Boc-Lys(Ac)-AMC 10 μM.
The target in the next assay is HDAC5 (Homo sapiens, UniProt Q9UQL6). Description: HDAC fluorometric activity assay, HDAC5. The settings on record: IC50 Class IIa HDAC5, fluorogenic HDAC class IIa substrate 10 μM.

The IC50 is the concentration needed to halve the response being measured.

Sequence of HDAC5 (Q9UQL6 whole entry): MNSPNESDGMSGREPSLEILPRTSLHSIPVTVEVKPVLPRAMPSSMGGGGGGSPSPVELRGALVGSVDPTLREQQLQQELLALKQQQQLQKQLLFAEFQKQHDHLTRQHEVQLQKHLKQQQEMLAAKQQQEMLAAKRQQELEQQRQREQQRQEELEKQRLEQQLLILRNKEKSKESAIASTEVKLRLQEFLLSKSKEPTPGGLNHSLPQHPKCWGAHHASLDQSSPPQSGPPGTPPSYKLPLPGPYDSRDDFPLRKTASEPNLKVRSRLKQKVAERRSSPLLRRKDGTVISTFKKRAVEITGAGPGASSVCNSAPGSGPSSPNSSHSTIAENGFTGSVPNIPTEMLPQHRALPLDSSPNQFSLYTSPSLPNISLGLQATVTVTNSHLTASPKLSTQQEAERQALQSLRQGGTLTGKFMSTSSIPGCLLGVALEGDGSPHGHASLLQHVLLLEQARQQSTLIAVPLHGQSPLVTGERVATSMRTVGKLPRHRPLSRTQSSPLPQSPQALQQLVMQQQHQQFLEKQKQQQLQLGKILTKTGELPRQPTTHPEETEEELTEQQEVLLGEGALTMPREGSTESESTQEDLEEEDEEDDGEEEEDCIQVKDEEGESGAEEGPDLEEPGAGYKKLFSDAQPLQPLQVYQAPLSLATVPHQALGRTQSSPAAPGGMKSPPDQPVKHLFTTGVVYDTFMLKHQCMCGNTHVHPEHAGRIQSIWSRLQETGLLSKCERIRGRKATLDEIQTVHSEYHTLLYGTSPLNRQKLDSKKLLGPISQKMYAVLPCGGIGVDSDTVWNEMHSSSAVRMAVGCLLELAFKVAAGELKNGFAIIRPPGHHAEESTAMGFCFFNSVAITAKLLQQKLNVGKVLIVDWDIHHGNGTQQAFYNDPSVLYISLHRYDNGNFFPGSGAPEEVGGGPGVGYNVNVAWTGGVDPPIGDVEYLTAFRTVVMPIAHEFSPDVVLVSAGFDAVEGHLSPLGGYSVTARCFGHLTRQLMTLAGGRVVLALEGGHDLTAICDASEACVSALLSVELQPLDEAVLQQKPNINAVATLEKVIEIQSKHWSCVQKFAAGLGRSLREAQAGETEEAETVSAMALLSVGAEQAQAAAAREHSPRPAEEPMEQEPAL
Experimental for HDAC5: (§1) Enzyme, inhibitors and substrate were diluted with HDAC buffer (15 mM Tris-HCl pH 8.1, 0.25 mM EDTA, 250 mM NaCl, 10% v:v glycerol). Briefly, 10 μL diluted HDAC, i.e., HeLa nuclear extract (Enzo), HDAC6 (BPS), HDAC4, HDAC5 (BPS), HDAC7 (BPS) and HDAC9 (BPS), as well as 50 μL of testing compounds at different concentrations were added to each well of a 96-well microtiter plate and pre-incubated at 30°C for 5 min. […] The fluorescence in wells without test compounds (0.1% DMSO, negative control) was set as 100% enzymatic activity and the fluorescence in wells with enzyme eliminated was set as 0% enzymatic activity. The fluorescence ratio of test compounds to negative control was defined as percentage of remaining enzyme activity. The IC50 values were calculated by linear regression of the data. All experiments were performed in triplicate.
Experimental for HDAC6: as §1
Experimental for HDAC7: as §1
Experimental for HeLa nuclear HDACs: as §1

As for `O=C(/C=C/c1ccccc1)CCCCc1ccccc1` [Compound 4a], the IC50 against HDAC7, on HDAC6, with HeLa nuclear HDACs and on HDAC5 was above 40 µM throughout.

Consider `O=C(/C=C/c1ccc(O)cc1)CCCCc1ccccc1` [Compound 4b], for which the IC50 at HDAC7, against HDAC6, in the assay on HeLa nuclear HDACs and against HDAC5 was above 40 µM in each case.

As for `O=C(/C=C/c1ccc(O)c(O)c1)CCCCc1ccccc1` [Compound 4c], the IC50 on HDAC7 was 8.4 ± 0.3 µM; against HDAC6, 18.3 ± 0.9 µM; with HeLa nuclear HDACs it was above 40 µM; against HDAC5, 15.9 ± 1.5 µM.

In the case of `O=C(/C=C/c1cccc(O)c1)CCCCc1ccccc1` [Compound 4d], the IC50 against HDAC7, against HDAC6, in the assay with HeLa nuclear HDACs and on HDAC5 was above 40 µM in each case.

Turning to `O=C(/C=C/c1cccc(O)c1O)CCCCc1ccccc1` [Compound 4e], the 50% inhibitory concentration (IC50) at HDAC7 is 8.6 ± 1 µM; against HDAC6, 29.4 ± 1.5 µM; with HeLa nuclear HDACs it was above 40 µM; against HDAC5 it was 14.6 ± 0.2 µM.

On to `O=C(/C=C/c1ccc(O)c(F)c1)CCCCc1ccccc1` [Compound 4f], for which the IC50 at HDAC7, on HDAC6, in the assay on HeLa nuclear HDACs and against HDAC5 was above 40 µM each time.

Turning to `O=C(/C=C/c1ccc(O)c(Cl)c1)CCCCc1ccccc1` [Compound 4g], the IC50 against HDAC7, against HDAC6, in the assay on HeLa nuclear HDACs and against HDAC5 was above 40 µM each time.

As for `O=C(/C=C/c1ccc(O)c(Br)c1)CCCCc1ccccc1` [Compound 4h], the IC50 at HDAC7, on HDAC6, in the assay on HeLa nuclear HDACs and against HDAC5 was above 40 µM each time.

As to `O=C(/C=C/c1ccc(O)c([N+](=O)[O-])c1)CCCCc1ccccc1` [Compound 4i], the IC50 on HDAC7 was 32.7 ± 2.1 µM; on HDAC6, above 40 µM; in the assay with HeLa nuclear HDACs, above 40 µM; against HDAC5, 36.1 ± 3.7 µM.

For `O=C(/C=C/c1cc(O)c(O)c(O)c1)CCCCc1ccccc1` [Compound 4j], the IC50 on HDAC7 is 3.8 ± 0.4 µM; on HDAC6, 11.9 ± 0.2 µM; in the assay with HeLa nuclear HDACs, above 40 µM; at HDAC5, 7.1 ± 0.2 µM.

With `COc1cc(/C=C/C(=O)CCCCc2ccccc2)ccc1O` [Compound 4k], the 50% inhibitory concentration (IC50) against HDAC7, at HDAC6, in the assay on HeLa nuclear HDACs and against HDAC5 was above 40 µM each time.

In the case of `O=C(CCCCc1ccccc1)CCc1ccccc1` [Compound 5a], the IC50 at HDAC7, against HDAC6, with HeLa nuclear HDACs and against HDAC5 was above 40 µM each time.

For `O=C(CCCCc1ccccc1)CCc1ccc(O)cc1` [Compound 5b], the IC50 against HDAC7, against HDAC6, with HeLa nuclear HDACs and on HDAC5 was above 40 µM in each case.

As to `O=C(CCCCc1ccccc1)CCc1ccc(O)c(O)c1` [Compound 5c], the IC50 at HDAC7 is 4.3 ± 0.5 µM; at HDAC6, above 40 µM; in the assay with HeLa nuclear HDACs, above 40 µM; against HDAC5, 3.8 ± 0.1 µM.

For `O=C(CCCCc1ccccc1)CCc1cccc(O)c1` [Compound 5d], the IC50 against HDAC7, against HDAC6, in the assay on HeLa nuclear HDACs and against HDAC5 was above 40 µM in each case.

`O=C(CCCCc1ccccc1)CCc1cccc(O)c1O` [Compound 5e]: the IC50 was 8.7 ± 0.7 µM at HDAC7, above 40 µM against HDAC6, above 40 µM in the assay on HeLa nuclear HDACs and 4.8 ± 0.4 µM at HDAC5.

Consider `O=C(CCCCc1ccccc1)CCc1ccc(O)c(F)c1` [Compound 5f], for which the IC50 against HDAC7, against HDAC6, in the assay on HeLa nuclear HDACs and at HDAC5 was above 40 µM in each case.

In the case of `O=C(CCCCc1ccccc1)CCc1ccc(O)c(Cl)c1` [Compound 5g], the IC50 on HDAC7 is 30.7 ± 0.7 µM; against HDAC6, above 40 µM; with HeLa nuclear HDACs, above 40 µM; against HDAC5, above 40 µM.

For the compound `O=C(CCCCc1ccccc1)CCc1ccc(O)c(Br)c1` [Compound 5h], the IC50 against HDAC7, at HDAC6, in the assay on HeLa nuclear HDACs and on HDAC5 was above 40 µM each time.

Regarding `COc1cc(CCC(=O)CCCCc2ccccc2)ccc1O` [Compound 5i], the IC50 on HDAC7, against HDAC6, in the assay on HeLa nuclear HDACs and against HDAC5 was above 40 µM each time.

Regarding `O=C(/C=C/c1ccc(O)c(O)c1)c1ccccc1` [Compound 7a], the IC50 against HDAC7 was 9.6 ± 0.2 µM; at HDAC6, 26.2 ± 4.3 µM; with HeLa nuclear HDACs, above 40 µM; on HDAC5, 13.1 ± 4.4 µM.

On to `O=C(/C=C/c1ccc(O)c(O)c1)Cc1ccccc1` [Compound 7b], for which the IC50 against HDAC7 is 15.4 ± 3 µM; on HDAC6, 37.2 ± 1.2 µM; in the assay with HeLa nuclear HDACs, above 40 µM; on HDAC5, 13.7 ± 0.8 µM.

With `O=C(/C=C/c1ccc(O)c(O)c1)CCc1ccccc1` [Compound 7c], the IC50 at HDAC7 was 13.6 ± 1.1 µM; at HDAC6 it was 34.5 ± 2.2 µM; with HeLa nuclear HDACs it was above 40 µM; on HDAC5, 15.6 ± 0.4 µM.

For the compound `O=C(/C=C/c1ccc(O)c(O)c1)CCCc1ccccc1` [Compound 7d], the IC50 was 9.4 ± 0.2 µM at HDAC7, 37.5 ± 1.6 µM against HDAC6, above 40 µM with HeLa nuclear HDACs and 12.6 ± 2.3 µM at HDAC5.

As to `O=C(CCc1ccc(O)c(O)c1)c1ccccc1` [Compound 8a], the IC50 was 12 ± 1 µM against HDAC7, above 40 µM at HDAC6, above 40 µM in the assay with HeLa nuclear HDACs and 6.2 ± 0.4 µM against HDAC5.

As for `O=C(CCc1ccc(O)c(O)c1)Cc1ccccc1` [Compound 8b], the IC50 was 13.7 ± 0.7 µM at HDAC7, above 40 µM against HDAC6, above 40 µM in the assay with HeLa nuclear HDACs and 9 ± 0.2 µM against HDAC5.

On to `O=C(CCc1ccccc1)CCc1ccc(O)c(O)c1` [Compound 8c], for which the IC50 on HDAC7 is 8.9 ± 0.4 µM; against HDAC6 it was above 40 µM; in the assay on HeLa nuclear HDACs it was above 40 µM; against HDAC5 it was 8.2 ± 0.1 µM.

As to `O=C(CCCc1ccccc1)CCc1ccc(O)c(O)c1` [Compound 8d], the IC50 was 7.4 ± 1.6 µM against HDAC7, above 40 µM against HDAC6, above 40 µM with HeLa nuclear HDACs and 7.5 ± 0.3 µM against HDAC5.
